Publication PMC6851324, “Design and development of stapled transmembrane peptides that disrupt the activity of G-protein–coupled receptor oligomers” (The Journal of Biological Chemistry, 2019)
Read-outs that look alike come from different tables or passages of the source. Where a SMILES comes first, the peptide text is derived from it. Bridges are numbered along the chain shown (N, C = ends). [ ]: non-standard residue; d: D form. S5 = C=CCCC[C@](C)(N)C(=O)O; Nle = CCCC[C@H](N)C(=O)O

Experiments:
[1] = biological target: T1, α-chymotrypsin from bovine pancreas (Bos taurus, UniProt P00766, DEL14-15/DEL147-148); assay: Proteolytic stability against chymotrypsin; type: in vitro ADME; settings: for half-life at 55.5 μM: cattle, isolated enzyme chymotrypsin
T1 construct: purchased Sigma Type II; host or cells: bovine pancreas
Experimental: (§1) Figure 4. Biophysical analysis of stapled peptides. A, amino acid sequence alignment of the targeted TM regions and disrupting peptides. Cys residues are in the reduced state. Blue bridges indicate the stapled amino acid residues. […] Yields, purity, and MALDI-TOF data are shown for the stapled peptides and negative control. B, CD analysis of 30–50 μM peptides at 20 °C. For proteolytic stability studies, the peptide solution (55.5 μM for trypsin and chymotrypsin and 11.1 μM for serum) was incubated in the presence of 0.55 μg/ml trypsin from porcine pancreas (E), α-chymotrypsin (F), or mouse serum (G) at 37 °C for the indicated times (indicated on the x axis). Data are mean ± S.E. (error bars) (n = 3) percentage of intact peptide normalized to t = 0. Proteolytic half-lives and putative cleavage sites (predicted using the Expasy bioinformatics server's model with a 50% probability of cleavage) are indicated at the bottom of each panel. Positive correlation between helicity and half-life in trypsin/chymotrypsin (C) or serum (D) was determined by two-tailed Pearson's correlation test. TEXT PRINTED IN THE PICTURE: (B) TM7-TAT: Ellipticity (%): 3.4 | (B) TM6-TAT: Ellipticity (%): 18.3 | (B) TM5-TAT: Ellipticity (%): 20.9 | (B) 8: Ellipticity (%): 58.3 | (B) 9: Ellipticity (%): 46.4 | (B) 10: Ellipticity (%): 36.8 | (B) 11: Ellipticity (%): 46 | (E) TM7-TAT: Half-life (min): 21; #Cleavage sites: 8 | (E) TM6-TAT: Half-life (min): 40; #Cleavage sites: 7 | (E) TM5-TAT: Half-life (min): 33; #Cleavage sites: 8 | (E) 8: Half-life (min): 307; #Cleavage sites: 0 | (E) 9: Half-life (min): 178; #Cleavage sites: 0 | (E) 10: Half-life (min): 75; #Cleavage sites: 6 | (E) 11: Half-life (min): 84; #Cleavage sites: 0 | (F) TM7-TAT: Half-life (min): 22; #Cleavage sites: 6 | (F) TM6-TAT: Half-life (min): 32; #Cleavage sites: 7 | (F) TM5-TAT: Half-life (min): 28; #Cleavage sites: 7 | (F) 8: Half-life (min): 425; #Cleavage sites: 4 | (F) 9: Half-life (min): 198; #Cleavage sites: 3 | (F) 10: Half-life (min): 63; #Cleavage sites: 2 | (F) 11: Half-life (min): 79; #Cleavage sites: 4 | (G) TM7-TAT: Half-life (hours): 0.46 | (G) TM6-TAT: Half-life (hours): 0.55 | (G) TM5-TAT: Half-life (hours): 0.81 | (G) 8: Half-life (hours): ≥18 | (G) 9: Half-life (hours): 14.7 | (G) 10: Half-life (hours): 11.7 | (G) 11: Half-life (hours): 5.3 DOUBTS OF THE COPYIST ABOUT THIS PICTURE: Panel A table (Yield, Rt, Purity, [M+H+] calc., [M+H+] Peak Found for 7-11) left out as synthesis and mass-spectrum characterisation data; uncertain whether [M+H+] calc. should count as a molecular weight
(§2) Dose–response curves were fitted using a four-parameter logistic nonlinear regression mode. Peptide stability data were fitted using a nonlinear regression mode for dissociation kinetics. All statistical tests, curve fitting, and graphing were performed using GraphPad Prism 8 (GraphPad Software, La Jolla, CA).
To 100 μl of peptide solution (100 μM, dissolved in ammonium bicarbonate buffer, pH 7.5), 60 μl of ammonium bicarbonate buffer (pH 7.5) was added, together with 20 μl of temperature-equilibrated (37 ± 1 °C) α-chymotrypsin (5 μg/ml) from bovine pancreas (Sigma, Type II, activity > 40 units/mg protein). Peptides were incubated for 15, 30, 60, 120, 240, and 480 min, and then MeOH (HPLC grade) + 0.05% TFA was added. The samples were then centrifuged (15,000 rpm), and supernatant was analyzed in a similar manner as described above. The experiment was repeated twice on different days.

5-HT2AR–CB1R heteromers = biological target: T2, 5-HT2AR–CB1R heteromers (Homo sapiens, UniProt P28223); assay: NanoBiT BiLC peptide screening assay (LgBiT–CB1R + SmBiT–5-HT2AR); type: cell-based; settings: HEK293 cells transiently expressing LgBiT–CB1R and SmBiT–5-HT2AR, preincubated 1 h with 4 μM peptide, luminescence normalized to vehicle, n ≥ 5
T2 construct: expressed in transfected cells; host or cells: HEK293 (ATCC CRL-1573), transient reverse transfection
Experimental: Figure 5. Identification of a small-stapled TM peptide disrupting 5-HT2AR–CB1R heteromers. A, schematic representation of the NanoBiT assay using N-terminally labeled constructs. In B, HEK293 cells transiently expressing the LgBT–CB1R and SmBiT–5-HT2AR complementary pairs were preincubated for 1 h at 37 °C with the indicated peptides (4 μM) or vehicle prior to luminescence recording. Data are mean RLU ± S.E. (error bars) (n ≥ 5) percentage of luminescence normalized to vehicle-treated cells. Statistical significance was evaluated by one-way ANOVA followed by Bonferroni post hoc tests, indicating significant differences over vehicle-treated cells (***, p ≤ 0.001; ****, p ≤ 0.0001) and for peptide 10 over its related peptides (####, p ≤ 0.0001). Peptide 10 potency (C) was evaluated as in A over increasing peptide concentrations (bottom) (n = 3). Alternatively, to assess the kinetics of the peptide 10–driven heteromer disruption (D), prior to the administration of the peptide, the cells were preincubated with substrate, and the luminescence was recorded over the following 30 min. Data are mean RLU ± S.E. (n ≥ 3) percentage of luminescence normalized to vehicle-treated cells.
To assess GPCR protein–protein interactions with the NanoBiT technology, HEK293 cells (50,000 cells/well) were seeded in poly-D-lysine–coated white clear bottom 96-well plates and reverse-transfected (see above) with the plasmids encoding the complementary NanoBiT hemiprotein fragments. For orientation screenings, cells were transfected with two different concentrations (50 and 100 ng/well) of each receptor alone or in combination with the investigated partner (see figure legends) in the presence of empty vector (pcDNA3.1(+)) to normalize the total amount of DNA/well. For studies in the presence of increasing nontagged receptor competitors, 100 ng of each receptor pair (CB1R LgBiT + CB1R SmBiT, 5-HT2AR LgBiT + 5-HT2AR SmBiT, and 5-HT2AR LgBiT + CB1R SmBiT) were co-transfected with increasing concentrations of the different nontagged constructs (from 0 to 300 ng/well), and the total amounts of DNA/well were normalized with empty vector (pcDNA3.1(+)). For the screening of stapled peptides, 50 ng/well of both LgBiT CB1R and SmBiT 5-HT2AR were reverse-transfected as detailed previously. 24 h post- transfection, the cell culture medium was removed, and the cells were starved in FBS-free DMEM for 4 h at 37 °C in a 5% CO2 humidified atmosphere. The cell culture medium was replaced by 100 μl of NanoBiT assay buffer (same as for cAMP measurements), and the plates were pre-equilibrated for 1 h at RT in the dark. When peptide pretreatment was required, peptides were added over this pre-equilibration step, except when studying inhibition kinetics, when the peptides were administered immediately after the baseline luminescence recording. 25 μl/well of a 5× solution of the Nano-Glo® live cell reagent containing the cell-permeable furimazine substrate dissolved in Nano-Glo® LCS dilution buffer were added, and the luminescence was immediately monitored in CLARIOstar® Multimode Plate Reader (BMG Labtech) with no lens (1-s integration time/well for 1 h every minute).
as §2

[2] = biological target: T3, trypsin from porcine pancreas (Sus scrofa, UniProt P00761); assay: Proteolytic stability against trypsin; type: in vitro ADME; settings: for half-life at 55.5 μM: pig, isolated enzyme trypsin
T3 construct: purchased Sigma; host or cells: porcine pancreas
Experimental: as §1, §2
To 100 μl of peptide solution (100 μM, dissolved in ammonium bicarbonate buffer, pH 7.5), 60 μl of ammonium bicarbonate buffer (pH 7.5) was added, together with 20 μl of temperature-equilibrated (37 ± 1 °C) trypsin (5 μg/ml) from porcine pancreas (Sigma, 13,000–20,000 BAEE units/mg of protein). Peptides were incubated for 15, 30, 60, 120, 240, and 480 min, and then MeOH (HPLC Grade) + 0.05% TFA was added. The samples were then centrifuged (15,000 rpm), and the supernatant was analyzed, using Fmoc-Gly (10 μl, 0.2 mM) as an internal standard. The digestion at each time point was repeated three times to give the average values along with S.D. The amount of intact peptide that remained in the mixture was quantified by RP-HPLC. The experiment was repeated twice on different days.

Stability in mouse serum = type: in vitro ADME; settings: 11.1 μM peptide, fresh nonsterile mouse serum (200 μl serum + 25 μl peptide solution, pH 7.5 buffer with 10% DMSO), 37 °C, quench 15% TCA in acetonitrile, HPLC, n = 3; read-out: Half-life (hours), mouse serum (converted)
Experimental: as §1, §2
To 200 μl of fresh nonsterile mouse serum was added 25 μl of peptide solution (100 μM, dissolved in ammonium bicarbonate buffer, pH 7.5, containing 10% DMSO), and the mixture was incubated at 37 °C. At the specified time, an aliquot of incubation mixture was withdrawn and quenched by the addition of an equal volume of 15% TCA in acetonitrile to precipitate out serum proteins over ice for 30 min. The mixture was then centrifuged at 13,500 rpm for 10 min, and the supernatant was collected and analyzed by HPLC in a similar manner as described previously. The experiment was repeated twice on different days.

T3 sequence (P00761 9-231): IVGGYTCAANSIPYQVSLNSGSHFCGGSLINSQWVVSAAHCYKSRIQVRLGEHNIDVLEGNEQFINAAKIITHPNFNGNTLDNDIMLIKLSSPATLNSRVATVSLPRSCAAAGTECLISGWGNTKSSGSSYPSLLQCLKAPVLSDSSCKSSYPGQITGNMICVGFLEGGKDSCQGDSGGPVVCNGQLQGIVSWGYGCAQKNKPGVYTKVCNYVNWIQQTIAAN
T2 sequence (P28223 2-471, one chain of several): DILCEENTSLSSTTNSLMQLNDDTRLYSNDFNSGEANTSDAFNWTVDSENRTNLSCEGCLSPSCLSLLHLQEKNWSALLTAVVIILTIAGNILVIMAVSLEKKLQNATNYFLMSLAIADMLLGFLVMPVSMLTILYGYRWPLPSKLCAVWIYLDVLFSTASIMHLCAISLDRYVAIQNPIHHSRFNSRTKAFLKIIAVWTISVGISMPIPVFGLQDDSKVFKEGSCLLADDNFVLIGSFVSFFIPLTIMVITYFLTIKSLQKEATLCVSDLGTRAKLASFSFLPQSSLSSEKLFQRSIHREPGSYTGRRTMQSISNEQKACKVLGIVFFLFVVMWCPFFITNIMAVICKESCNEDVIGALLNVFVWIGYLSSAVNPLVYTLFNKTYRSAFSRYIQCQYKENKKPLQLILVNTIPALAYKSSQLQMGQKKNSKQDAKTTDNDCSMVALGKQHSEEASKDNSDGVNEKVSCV

| SMILES | half-life at 55.5 μM ([1]; pH 7.5) [min] | half-life in chymotrypsin as stated in text ([1]; pH 7.5) [h] | effect on NanoBiT luminescence (heteromer disruption) (5-HT2AR–CB1R heteromers) | half-life at 55.5 μM ([2]; pH 7.5, Half-life (min), trypsin) [min] | half-life at 55.5 μM ([1]; 55.5 μM peptide, 0.55 μg/ml α-chymotrypsin from bovine pancreas, ammonium bicarbonate buffer pH 7.5, 37 °C, 15–480 min, intact peptide by RP-HPLC, n = 3, nonlinear regression fit, read-out: Half-life (min), α-chymotrypsin) [min] | chymotrypsin resistance improvement over full-length TM-TAT peptides ([1]; versus full-length TM7-TAT, TM6-TAT and TM5-TAT) [fold] | half-life at 11.1 μM (Stability in mouse serum) [h] | half-life at 55.5 μM ([2]; 55.5 μM peptide, 0.55 μg/ml trypsin from porcine pancreas, ammonium bicarbonate buffer pH 7.5, 37 °C, 15–480 min, intact peptide by RP-HPLC (Fmoc-Gly internal standard), n = 3, nonlinear regression fit, read-out: Half-life (min), trypsin) [min] | enhancement in trypsin resistance (half-life) over control peptides ([2]; versus TM7-TAT, TM6-TAT and TM5-TAT control peptides, trypsin 0.55 μg/ml) |
| --- | --- | --- | --- | --- | --- | --- | --- | --- | --- |
| CCCC[C@@H]1NC(=O)[C@H](Cc2ccc(O)cc2)NC(=O)[C@@](C)(NC(=O)[C@H](Cc2ccc(O)cc2)NC(=O)[C@@H](N)C(C)C)CCC/C=C\CCC[C@@](C)(C(=O)N[C@H](C(=O)N[C@@H](CC(C)C)C(=O)N[C@@H](Cc2c[nH]c3ccccc23)C(N)=O)[C@@H](C)CC)NC1=O [Peptide 9] (H-VY[S5]Y[Nle][S5]ILW-NH2; staple (Z) 3-6) | 198 | 5 to 6 | neither the version lacking the TAT amino acid sequence, compound 9, nor the nonstaple, compound 11, peptides induced any change | 178 | – | – | – | – | – |
| CCCC[C@@H]1NC(=O)[C@H](Cc2ccc(O)cc2)NC(=O)[C@@](C)(NC(=O)[C@H](Cc2ccc(O)cc2)NC(=O)[C@@H](N)C(C)C)CCCC=CCCC[C@@](C)(C(=O)N[C@@H](CC(C)C)C(=O)N[C@@H](Cc2c[nH]c3ccccc23)C(=O)NCC(=O)N[C@@H](CCCNC(=N)N)C(=O)N[C@@H](CCCCN)C(=O)N[C@@H](CCCCN)C(=O)N[C@@H](CCCNC(=N)N)C(=O)N[C@@H](CCCNC(=N)N)C(=O)N[C@@H](CCC(N)=O)C(=O)N[C@@H](CCCNC(=N)N)C(=O)N[C@@H](CCCNC(=N)N)C(=O)N[C@@H](CCCNC(=N)N)C(N)=O)NC(=O)[C@H](Cc2ccc(O)cc2)NC1=O [Peptide 10] (H-VY[S5]Y[Nle]Y[S5]LWGRKKRRQRRR-NH2; staple 3-7) | – | – | – | – | 63 | ~2 | 11.7 | 75 | 2–3 fold |
